Ends that are not written are not given here. * marks the point of attachment. Biotin = O=C1N[C@H]2[C@H](CS[C@H]2CCCCC(=O)*)N1
Legend:
[1] = Peptide competition ELISA with D21 phage; assay type: binding, human
Protocol: The purpose of this Example was to test the peptide binding site specificity and affinity of the hair-binding peptide D21 using a competition ELISA. The ELISA assay only detects phage particles that remain bound to the hair surface.
The synthetic hair-binding peptide D21, given as SEQ ID NO:46 was synthesized by SynPep (Dublin, Calif.). As a control, an unrelated synthetic skin-binding peptide (SK-1), given as SEQ ID NO:61, was added to the system. The experimental conditions were similar to those used in the ELISA method described in Example 5. Briefly, 100 μL of Binding Buffer (1×TBS with 0.1% Tween® 20 and 1 mg/mL BSA) and 10^11 pfu of the pure D21 phage particles were added to each well of the 96-well filter plate, which contained a sample of normal hair. The synthetic peptide (100 μg) was added to each well (corresponding to concentration of 0.8 mM). The reactions were carried out at room temperature for 1 h with gentle shaking, followed by five washes with TBST-0.5%. The remaining steps were identical to the those used in the ELISA method described in Example 5. Each individual ELISA test was performed in triplicate; the values in Table 11 are the means of the triplicate determinations.

[2] = Titer-based assay of hair-binding phage clones; parameters: species or system human; conditions: output pfu retained by 10 mg of normal hair; input 10^14 pfu; acid-eluted phage
Protocol: Phage clones displaying specific peptides were used for comparing the binding characteristics of different peptide sequences. A titer-based assay was used to quantify the phage binding. This assay measures the output pfu retained by 10 mg of hair surfaces, having a signal to noise ratio of 10^3 to 10^4. The input for all the phage clones was 10^14 pfu. It should be emphasized that this assay measures the peptide-expressing phage particle, rather than peptide binding.
Normal hairs were cut into 0.5 cm lengths and 10 mg of the cut hair was placed in each well of a 96-well filter plate (Qiagen). Then, the wells were filled with blocking buffer containing 1 mg/mL BSA in TBST-0.5% and incubated for 1 h at 4° C. The hairs were washed 5 times with TBST-0.5%. The wells were then filled with 1 mL of TBST-0.5% containing 1 mg/mL BSA and then purified phage clones (10^14 pfu) were added to each well. The hair samples were incubated for 15 min at room temperature and then washed 10 times with TBST-0.5%. The hairs were transferred to a clean well and 1.0 mL of a non-specific elution buffer, consisting of 1 mg/mL BSA in 0.2 M Glycine-HCl at pH 2.2, was added to each well. The samples were incubated for 10 min and then 160 μL of neutralization buffer (1 M Tris-HCl, pH 9.2) was added to each well. The eluted phage from each well were transferred to a new tube for titering and sequencing analysis.
To titer the bound phage, the eluted phage was diluted with SM buffer to prepare 10-fold serial dilutions of 10^1 to 10^8. A 10 μL aliquot of each dilution was incubated with 200 μL of mid-log phase E. coli ER2738 (New England BioLabs), and grown in LB medium for 20 min and then mixed with 3 mL of agarose top (LB medium with 5 mM MgCl2, and 0.7% agarose) at 45° C. This mixture was spread onto a LB medium/IPTG/Xgal (5-bromo-4-chloro-3-indolyl-β-D-galactopyranoside) plate (LB medium with 15 g/L agar, 0.05 g/L IPTG, and 0.04 g/L Xgal) and incubated overnight at 37° C.

[3] = ELISA-based MB50 determination on pig skin; assay type: binding; conditions: for binding affinity for skin: in words, from MB50; for EC50: substrate Pig Skin, biotinylated peptide
From the text: (§1) The term “MB50” refers to the concentration of the binding peptide that gives a signal that is 50% of the maximum signal obtained in an ELISA-based binding assay as described herein. The MB50 provides an indication of the strength of the binding interaction or affinity of the components of the complex. The lower the value of MB50, the stronger the interaction of the peptide with its corresponding substrate.
(§2) Hair-binding and skin-binding peptides were synthesized by SynPep Inc. (Dublin, Calif.). The peptides were biotinylated by adding a biotinylated lysine residue at the C-terminus of the amino acid binding sequences for detection purposes and an amidated cysteine was added to the C-terminus of the sequence.
(§3) For hair samples, the procedure used was as follows. The setup of the surface specific 96-well system used was the same as that described in Example 5. Briefly, the 96-wells with hair or pig skin surfaces were blocked with blocking buffer (SUPERBLOCK™ from Pierce Chemical Co., Rockford, Ill.) at room temperature for 1 h, followed by six washes with TBST-0.5%, 2 min each, at room temperature. Various concentrations of biotinylated, binding peptide were added to each well, incubated for 15 min at 37° C., and washed six times with TBST-0.5%, 2 min each, at room temperature. Then, streptavidin-horseradish peroxidase (HRP) conjugate (Pierce Chemical Co.) was added to each well (1.0 μg per well), and incubated for 1 h at room temperature. After the incubation, the wells were washed six times with TBST-0.5%, 2 min each at room temperature. Finally, the color development and the measurement were performed as described in Example 5.
For the measurement of MB50 of the peptide-skin complexes, the following procedure was used. First, the pigskin was treated to block the endogenous biotin in the skin. This was done by adding streptavidin to the blocking buffer. After blocking the pigskin sample, the skin was treated with D-biotin to block the excess streptavidin binding sites. The remaining steps were identical to those used for the hair samples.
(§4) The results were plotted as A450 versus the concentration of peptide using GraphPad Prism 4.0 (GraphPad Software, Inc., San Diego, Calif.).

[4] = ELISA of phage-peptide clones on hair; assay type: binding, human; conditions: for Hair A450: phage ELISA, anti-M13 HRP conjugate, mean of at least three replicates
Protocol: (§5) Enzyme-linked immunosorbent assay (ELISA) was used to evaluate the hair-binding specificity of selected phage-peptide clones. Phage-peptide clones identified in Examples 1 and 2 along with a randomly chosen control G-F9, KHGPDLLRSAPR (given as SEQ ID NO:63) were amplified. More than […] (plaque forming units) phage were added to pre-blocked hair surfaces.
(§6) A unique hair or pig skin-bottom 96-well apparatus was created by applying one layer of PARAFILM® under the top 96-well block of a Minifold I Dot-Blot System (Schleicher & Schuell, Inc., Keene, N.H.), adding hair or a layer of hairless pig skin on top of the PARAFILM® cover, and then tightening the apparatus. For each clone to be tested, the hair-covered well was incubated for 1 h at room temperature with 200 μL of blocking buffer, consisting of 2% non-fat dry milk (Schleicher & Schuell, Inc.) in TBS. A second Minifold system with pig skin at the bottom of the wells was treated with blocking buffer simultaneously to serve as a control. The blocking buffer was removed by inverting the systems and blotting them dry with paper towels. The systems were rinsed 6 times with wash buffer consisting of TBST-0.05%. The wells were filled with 200 μL of TBST-0.5% containing 1 mg/mL BSA and then 10 μL (over […]) of purified phage stock was added to each well. The samples were incubated at 37° C. for 15 min with slow shaking. The non-binding phage was removed by washing the wells 10 to 20 times with TBST-0.5%. Then, 100 μL of horseradish peroxidase/anti-M13 antibody conjugate (Amersham USA, Piscataway, N.J.), diluted 1:500 in the blocking buffer, was added to each well and incubated for 1 h at room temperature. The conjugate solution was removed and the wells were washed 6 times with TBST-0.05%. TMB (3,3′,5,5′-tetramethylbenzidine) substrate (200 μL), obtained from Pierce Biotechnology (Rockford, Ill.) was added to each well and the color was allowed to develop for between 5 to 30 min, typically for 10 min, at room temperature. Then, stop solution (200 μL of 2 M H2SO4) was added to each well and the solution was transferred to a 96-well plate and the A450 was measured using a microplate spectrophotometer (Molecular Devices, Sunnyvale, Calif.). The resulting absorbance values, reported as the mean of at least three replicates, and the standard error of the mean (SEM) are given in Table 10.

[5] = ELISA of phage-peptide clones on pig skin (specificity control); assay type: binding; conditions: for Pig Skin A450: phage ELISA, anti-M13 HRP conjugate, mean of at least three replicates
Protocol: as §5, §6

[6] = ELISA-based MB50 determination on hair; assay type: binding, human; conditions: for binding affinity for respective substrate (hair): in words, from MB50; for EC50: biotinylated peptide
From the text: as §1, §2, §3, §4

[7] = in words, from the data in Table 10

Substance	Phage Titer [2]	Hair A450 [4]	Pig Skin A450 [5]	further results
RTNAADHPAAVT [Clone D21]				A450 ([1]; 10^11 pfu D21 phage on normal hair, synthetic peptide 100 μg per well (0.8 mM) where added, mean of triplicate): 1.878
MPLYYLQ (displayed on phage; Hair-binding peptide) [Clone E]	1.70 × 10^5			
Binding Peptide D21: biotinylated hair-binding peptide D21 (binding sequence SEQ ID NO:46) (RTNAADHPAAVTK(Biotin)C-NH2; N-terminus assumed; SMILES CC(C)[C@H](NC(=O)[C@H](C)NC(=O)[C@H](C)NC(=O)[C@@H]1CCCN1C(=O)[C@H](Cc1c[nH]cn1)NC(=O)[C@H](CC(=O)O)NC(=O)[C@H](C)NC(=O)[C@H](C)NC(=O)[C@H](CC(N)=O)NC(=O)[C@@H](NC(=O)[C@@H](N)CCCNC(=N)N)[C@@H](C)O)C(=O)N[C@H](C(=O)N[C@@H](CCCCNC(=O)CCCC[C@@H]1SC[C@@H]2NC(=O)N[C@@H]21)C(=O)N[C@@H](CS)C(N)=O)[C@@H](C)O)				binding affinity for skin [3]: relatively low
AKTHKHPAPSYS [Clone C13]		0.375	0.024	
TAATTSP (displayed on phage; Hair-binding peptide) [Clone B1]		0.42	0.127	
MPKYYLQ (displayed on phage; Hair-binding peptide) [Clone J]	1.24 × 10^6			
HLTVPWRGGGSAVPFYSHSQITLPNH [Clone F]	1.11 × 10^6			
LGIPQNL (displayed on phage; Hair-binding peptide) [Clone D39]		0.685	0.086	
HPVWPAI (displayed on phage; Hair-binding peptide) [Clone D]	8.20 × 10^4			
SLNWVTIPGPKI [Clone C10]		0.542	0.032	
KHPTYRQ (displayed on phage; Hair-binding peptide) [Clone H]	1.30 × 10^6			
DLHTVYH (displayed on phage; Hair-binding peptide) [Clone A]	7.50 × 10^4			
NSPGYQADSVAIG [Clone D30]		0.414	0.287	
LPRIANTWSPS [Clone F35]				binding affinity for respective substrate (hair) [6]: high; EC50 ([6]; substrate Bleached Hair): 3000 nM
TPALDGLRQPLR [Clone C18]		0.34	0.132	
EQISGSLVAAPW [Clone A5]		0.431	0.256	
MHAHSIA (displayed on phage; Hair-binding peptide) [Clone A36]		0.585	0.173	
KHGPDLLRSAPR [Clone G-F9, reference compound]		0.074	−0.137	
I-B5 (TPPELLHGDPRS; Hair-binding peptide) [listing 1 of 2 here]				binding affinity for skin [3]: relatively low; binding affinity for respective substrate (hair) [6]: high
I-B5 (TPPELLHGDPRS; Hair-binding peptide) [listing 2 of 2 here]				EC50 [3]: > 100000 nM; EC50 ([6]; substrate Normal and Bleached Hair): 300 nM
HIKPPTR (displayed on phage; Hair-binding peptide) [Clone B]	1.21 × 10^5			
GPHDTSSGGVRPNLHHTSKKEKRENRKVPFYSHSVTSRGNV [Clone G]	1.67 × 10^8			
GPHDTSSGGVRPNLHHTSKKEKRENRKVPFYSHSVTSRGNV [Clone D5]		0.652	0.104	
RTNAADHPAAVT [Peptide D21]		1.051	0.04	EC50 [3]: 40000 nM; binding affinity for hair [4, 7]: very strong; selectivity for hair compared to pig skin [4, 7]: highest; affinity for pig skin [5, 7]: very low; competition with the phage clone D21 for the same binding sites on the hair surface ([1]; in words): does compete; binding affinity for respective substrate (hair) [6]: high; EC50 ([6]; substrate Normal Hair): 2000 nM
TPFHSPENAPGS [SK-1]				binding affinity for skin [3]: high; EC50 [3]: 700 nM
TDMQAPTKSYSN [Clone C5]		0.548	0.047	
